Data taken from US7265259B2, “GSK-3β expressed in a transgenic mouse” (Consejo Superior de Investigaciones Clentificas, priority 2000, dated 2007).

Tested on: Tet/GSK-3β mice
Test: Genotype frequency of double transgenic mice after prenatal doxycycline treatment (perinatal lethality)
Assay type: in vivo, mouse
Conditions: 14% without treatment, 25% expected
Description: Tet/GSK-3B mice were viable and fertile and appeared normal without pharmacological intervention to suppress transgene expression. This seemed to contradict the previously postulated toxicity of increased GSK-3β expression in brain (Brownlees et al., 1997). […] The Tet/GSK-3β mice were underrepresented (14%, n=401). This might be indicative of lethality due to embryonic overexpression of GSK-3β in Tet/GSK-3β mice.
We had previously observed perinatal transgene expression and lethality in our CamKIIα-tTA driven animal model of Huntington's disease (HD94) (Yamamoto et al., 2000). In the case of HD94 mice, if pregnant mice are given the tetracycline analog doxycycline (2 mg/ml) in the drinking water ad libitum from E15 to birth, only postnatal transgenic expression takes place and the frequency of the four expected genotypes is restored to 25%. We thus decided to apply the same program of perinatal doxycycline treatment to the Tet/GSK-3B mice. […] As expected, prenatal doxycycline treatment normalized to 25% the frequency of Tet/GSK-3β mice and thus, to maximize yield of double transgenic mice in litters, the perinatal doxycycline treatment was routinely employed.

With `C[C@H]1c2cccc(O)c2C(=O)C2=C(O)[C@]3(O)C(=O)C(C(N)=O)=C(O)[C@@H](N(C)C)[C@@H]3[C@@H](O)[C@@H]21` [doxycycline] the “frequency of Tet/GSK-3β mice” value was 25%.
